Measurements: US20070208087A1, “Compounds, compositions and methods for the treatment of inflammatory diseases” (priority 2001, published 2007)
Values joined by “and” are separate entries in the source; they are usually repeats but may differ in a detail not shown here. Identical values can stand only once. Like-named read-outs stand apart in the source and are kept apart here.

Key:
[1] = test system: EOC 13.31 microglia cells; assay: NO release inhibition in LPS/IFNγ stimulated microglia, concurrent treatment, Griess reaction at 24 hours (Example 6); type: cell-based; conditions: for NO release, Avg / inhibition at 50 µM: 24 hours; for inhibition at 50 µM: Microglia
In short: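 Confluent EOC 13.31 microglia were given 50 μM compound together with 1 pg/ml LPS plus 1 ng/ml IFNγ, or without stimulation. NO release was quantified spectrophotometrically by Griess reaction 24 hours later.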

[2] = test system: EOC 13.31 microglial cells; assay: NO release inhibition screen in LPS/IFNγ stimulated microglia, Griess reaction at 48 hours (Example 7); type: cell-based; conditions: for inhibition at 50 µM: Microglia, 48 h
In short: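 EOC 13.31 microglia, confluent at 24 h, stimulated with 10 μg/ml LPS plus 10 ng/ml IFNγ in presence of 50 uM test compound. Nitric oxide release quantified by Griess reaction at 48 hours.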

[3] = Compound Only (without LPS/IFNγ), 50 μM
[4] = Compound + LPS/IFNγ, read-out: % inhibition of NO release
[5] = Table 2 summary, LPS/IFNγ, read-out: % Inhibition (summary of inhibition of NO release)

Structure (SMILES) | NO release, Avg ([1]; Compound + LPS/IFNγ, 50 μM) [µM] | NO release, Avg [1, 3] [µM] | inhibition at 50 µM [1, 4] [%] | inhibition at 50 µM [1, 5] [%] | inhibition of NO release, in words ([1]; 50 μM, LPS/IFNγ stimulated microglial cells) | μM NO release Avg ([2]; 50 uM + 10 μg/ml LPS/10 ng/ml IFNγ, 48 hours) [µM] | % inhibition ([2]; 50 uM + 10 μg/ml LPS/10 ng/ml IFNγ, 48 hours, single replicates, 50 µM) | inhibition of NO release, in words ([2]; 50 uM, LPS/IFNγ stimulated microglia) | inhibition at 50 µM ([2]; 50 uM + 10 μg/ml LPS/10 ng/ml IFNγ, 48 hours, read-out: Avg. % Inhibition) [%] | inhibition at 50 µM ([2]; 50 uM + 10 μg/ml LPS/10 ng/ml IFNγ, 48 hours, single replicates, read-out: % inhibition) [%]
O=C(NCc1ccc(O)c(O)c1)C(=Cc1ccc(O)c(O)c1)NC(=O)c1ccc(O)c(O)c1 [Compound 21, α-(3,4-dihydroxybenzamido)-3,4-dihydroxycinnamic acid 3,4-dihydroxybenzyl amide] | 15.3486 | -0.0417 | 17.6 | 17.6 | – | – | – | – | – | –
O=C(N[C@@H]1CCCC[C@H]1NC(=O)c1ccc(O)c(O)c1)c1ccc(O)c(O)c1 (relative stereo) [Compound 26, N,N′-bis(3,4-dihydroxybenzoyl)-trans-1,2-diaminocyclohexane] | 14.8384 | 0.0000 | 20.3 | 20.3 | very effective inhibitors of NO release | – | – | – | – | –
Oc1ccc(CNCc2ccc(O)c(O)c2)cc1O [Compound 73, bis(3,4-dihydroxybenzyl)amine] | – | – | – | – | – | 2.301 | 83.62% and 94.98% | effective inhibitors of NO release | 91.7 | 96.5
